Assay [1] deals with thrombocyte aggregation in platelet-rich plasma of healthy human donors. In words: thrombocyte (platelet) aggregation inhibiting activity, method of Born and Cross, collagen-induced. It is filed as cell-based. Conditions: 10^-4 mol/l, optical density, read-out: Inhibition in % after addition of 10^-4 mol/l, O.D. How it is done:
(1) Determination of thrombocyte aggregation inhibiting activity by the method of Born and Cross [see J. Physiol. 170, 397 (1964)]:
The platelet aggregation inhibiting activity was determined in the platelet-rich plasma of healthy human donors. The rate of decline of the optical density of the platelet suspension was measured and recorded photometrically after the addition of commercial collagen containing 1 mgm of collagen fibrils per ml. From the angle of inclination of the density curve, the rate of aggregation was estimated (Vmax). The optical density was taken as the point on the curve where most light was transmitted (O.D.). To provoke maximum aggregation about 0.01 ml of the collagen solution was added to 1 ml of platelet-rich plasma.

In assay [2] the test system is isolated, spontaneously beating auricles of the guinea pig. Briefly: positive inotropic (cardiotonic) activity on isolated auricles. Particulars: Cavia porcellus, 10^-5 gm/ml, 30° C., average of at least 5 auricles, read-out: Increase in the force of contraction in %. Type of assay: cell-based. How it is done:
3. Determination of the positive inotropic (cardiotonic) activity
The positive inotropic activity was determined as the strengthening effect upon the force of contraction of isolated, spontaneously beating auricles of the guinea pig. Freshly isolated auricles were put into a bath of 100 ml of a tyrode solution at a temperature of 30° C. The tyrode solution was infused with carbogen (95% of O2 and 5% of CO2). The spontaneous contractions of the auricles were registered isometrically with a Statham-Force-Displacement-transducer FT 03 C on a Grass polygraph. The auricles were pre-stretched with 1 gm. After an equilibration period of 20-30 minutes the test compound was added at a concentration of 10^-^5 gm/ml.

In assay [3] the test system is mongrel dogs (arterial blood pressure). Briefly: hypotensive activity in anesthetized mongrel dogs. Type of assay: in vivo, dog. Particulars: average of 3 tests. How it is done: (2) Determination of the hypotensive activity:
The hypotensive activity was determined in mongrel dogs of both sexes (body weight between 19 and 26 kg) under chloralose/urethane (54+ 270 mgm/kg i.v.) and nembutal (10 mgm/kg i.v.) anesthesia. After tracheotomy, the animals were attached to a Harvard artificial respirator using normal air. The arterial blood pressure was measured in the arteria femoralis by a Statham pressure transducer P 23 Dc and registered on a Grass polygraph. The compound under investigation was administered in aqueous solution by intravenous injection into the vena saphena.

Counter-ions that a name gives are not always drawn.

For `Cc1nc2ccc(-c3ccc(=O)[nH]n3)cc2[nH]1` [B, 2-Methyl-5(6)-(3'-oxo-2'H-6'-pyridazinyl)-benzimidazole hydrochloride], the inhibition at 100 µM in assay [1] turned out to be 100%. Further, the activation at 10 µg/mL in assay [2] amounted to 20%. In assay [3] (0.5 mgm/kg i.v.), the “Decrease in blood pressure (figure after the slash)” value (“Decrease … (figure after the slash)” for short) amounted to 25 mm Hg and the “Decrease in blood pressure (figure before the slash)” value (“Decrease … (figure before the slash)” for short) worked out at 18 mm Hg. Also, in assay [3] (1.0 mgm/kg i.v.), the “Decrease … (figure after the slash)” value is on record as 32 mm Hg and the “Decrease … (figure before the slash)” value is on record as 33 mm Hg.

On to `COc1ccc(-c2nc3ccc(C4=NNC(=O)CC4)cc3[nH]2)c(OC)c1` [C, 2-(o,p-Dimethoxy-phenyl)-5(6)-(3'-oxo-4',5'-dihydro-2'H-6'-pyridazinyl)-benzimidazole], for which the activation at 10 µg/mL in assay [2] amounted to 12%. In addition, in assay [3] (0.25 mgm/kg i.v.), the “Decrease … (figure after the slash)” value worked out at 44 mm Hg and the “Decrease … (figure before the slash)” value worked out at 17 mm Hg. For the same compound, in assay [3] (1.0 mgm/kg i.v.), the “Decrease … (figure after the slash)” value was 44 mm Hg and the “Decrease … (figure before the slash)” value is on record as 33 mm Hg.

On to `Cc1nc2ccc(C3=NNC(=O)CC3)cc2[nH]1` [Compound A, 2-Methyl-5(6)-(3'-oxo-4',5'-dihydro-2'H-6'-pyridazinyl)-benzimidazole hydrochloride], for which the inhibition at 100 µM in assay [1] was 100%. Also, the activation at 10 µg/mL in assay [2] was found to be 30%. Besides, in assay [3] (0.25 mgm/kg i.v.), the “Decrease … (figure after the slash)” value was 9 mm Hg and the “Decrease … (figure before the slash)” value amounted to 7 mm Hg. For the same compound, in assay [3] (1.0 mgm/kg i.v.), the “Decrease … (figure after the slash)” value worked out at 38 mm Hg and the “Decrease … (figure before the slash)” value is 26 mm Hg.

With `COc1ccc(-c2nc3ccc(C4=NNC(=O)CC4)cc3[nH]2)cc1` [Compound I, 2-(p-Methoxy-phenyl)-5(6)-(3'-oxo-4',5'-dihydro-2'H-6'-pyridazinyl)-benzimidazole], the inhibition at 100 µM in assay [1] came to 100%.

Consider `Cc1nc2ccc(-c3ccc(N4CCOCC4)nn3)cc2[nH]1` [D, 2-Methyl-5(6)-(3'-morpholino-6'-pyridazinyl)-benzimidazole], for which, in assay [1], the inhibition at 100 µM stood at 89%.

As to `O=C1CCC(c2ccc3nc(-c4ccccc4F)[nH]c3c2)=NN1` [E, 2-(o-Fluoro-phenyl)-5(6)-(3'-oxo-4',5'-dihydro-2'H-6'-pyridazinyl)-benzimidazole hydrochloride], the activation at 10 µg/mL in assay [2] was determined as 15%.

On to `O=C1CCC(c2ccc3nc(C(F)(F)F)[nH]c3c2)=NN1` [F, 2-trifluoromethyl-5(6)-(3'-oxo-4',5'-dihydro-2'H-6'-pyridazinyl)-benzimidazole], for which the inhibition at 100 µM in assay [1] amounted to 100%.

In the case of `Cc1nc2ccc(C3=NN(C)C(=O)CC3)cc2[nH]1` [G, 2-Methyl-5(6)-(2'-methyl-3'-oxo-4',5'-dihydro-2'H-6'-pyridazinyl)-benzimidazole hydrochloride], in assay [2], the activation at 10 µg/mL worked out at 13%.

Take `O=C1CCC(c2ccc3nc[nH]c3c2)=NN1` [H, 5(6)-(3'-oxo-4',5'-dihydro-2'H-6'-pyridazinyl)-benzimidazole]: in assay [1], the inhibition at 100 µM came out at 100%.

For the compound `COc1ccc(-c2nc3ccc(-c4ccc(=O)[nH]n4)cc3[nH]2)cc1` [K, 2-(p-Methoxy-phenyl)-5(6)-(3'-oxo-2'H-6'-pyridazinyl)-benzimidazole methanesulfonate], in assay [2], the activation at 10 µg/mL turned out to be 33%.

The values above are taken from patent publication US4026891A, “5- Or 6-pyridazinyl-benzimidazoles and salts thereof” (Boehringer Ingelheim GmbH, priority 1974, dated 1977).
